The experiment has as its target T1, human 5-HT6 receptor (Homo sapiens, UniProt P50406).
T1 construct: host or cells: CHO-K1 cells, stably transfected; membranes prepared in house
As to the kind of experiment: Human 5-HT6 Receptor Binding Assay ([3H]LSD displacement, scintillation beads). Conditions: membranes of CHO-K1 cells with recombinant human 5-HT6, 4 nM [3H]LSD, read-out: h5-HT6 (Ki).

SMILES strings stand for the structures. pKi: −log10 of the molar value. Like-named read-outs stand apart in the source and are kept apart here.

Usually pKi stands for the Ki on a negative log10 scale, so that one unit is a factor of ten.

T1 sequence (P50406 whole entry): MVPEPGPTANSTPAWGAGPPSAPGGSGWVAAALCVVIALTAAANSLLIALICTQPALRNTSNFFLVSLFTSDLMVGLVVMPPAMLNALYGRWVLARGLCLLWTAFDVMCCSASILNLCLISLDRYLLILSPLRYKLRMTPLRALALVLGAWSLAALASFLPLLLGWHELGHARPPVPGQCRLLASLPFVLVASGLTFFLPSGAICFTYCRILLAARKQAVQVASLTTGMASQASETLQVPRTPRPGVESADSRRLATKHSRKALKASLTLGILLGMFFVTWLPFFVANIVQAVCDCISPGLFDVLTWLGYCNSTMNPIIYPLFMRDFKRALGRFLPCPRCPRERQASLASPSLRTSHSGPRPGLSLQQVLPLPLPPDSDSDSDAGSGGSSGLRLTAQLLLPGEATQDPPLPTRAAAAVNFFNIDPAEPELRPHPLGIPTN

On to `O=S(=O)(Nc1ccc2c(c1)C1CCNCC1O2)c1cc2ccccc2s1` (centres unmarked) [Example 834], for which, under “Table 1, class symbols”, the pKi is more than 6.30. As to `O=S(=O)(Oc1ccc2c(c1)C1CCNCC1O2)c1ccc(-n2cccn2)cc1` (centres unmarked) [Example 733], the pKi (Table 1, class symbols) was 6.00 to 6.30. Regarding `COc1cccc(NS(=O)(=O)c2ccc3c(c2)C2CCNCC2O3)c1` (centres unmarked) [Example 850], the negative logarithm of the Ki (pKi) (Table 1, class symbols) is less than 6.00.

Consider `O=S(=O)(c1cccc(F)c1)c1ccc2c3c([nH]c2c1)C(C(F)(F)F)NCC3` (stereo not drawn) [Example 527, 7-[(3-fluorophenyl)sulfonyl]-1-(trifluoromethyl)-2,3,4,9-tetrahydro-1H-beta-carboline], for which the pKi (specific data) was 7.03. For the compound `CC12CCNCC1Oc1cc(S(=O)(=O)c3cccc(C(F)(F)F)c3)ccc12` (centres unmarked) [Example 357], the pKi (Table 1, class symbols) is more than 6.30.

Regarding `O=S(=O)(c1cccc(OC(F)(F)F)c1)c1ccc2c(c1)OC1CNCCC21` (centres unmarked) [Example 149, 7-{[3-(trifluoromethoxy)phenyl]sulfo-nyl}-1,2,3,4,4a,9a-hexahydro[1]benzofuro[2,3-c]pyridine], the pKi (Table 1, class symbols) was more than 6.30. In the case of `CN(Cc1ccccc1)S(=O)(=O)c1ccc2c(c1)C1CCNCC1O2` (centres unmarked) [Example 858], the pKi (Table 1, class symbols) is less than 6.00. As to `O=S(=O)(c1ccc2oc3c(c2c1)CCNC3)c1cccc2ccccc12` [Example 249], where the note is “Table 1, class symbols”, the negative logarithm of the Ki (pKi) was more than 6.30. On the same count and under the same terms, next, `COCCN1CCc2c(oc3cc(S(=O)(=O)c4ccccc4)ccc23)C1` [Example 594]: more than 6.30; `CN1CCC2c3ccc(OS(=O)(=O)c4ccc(Cl)cc4)cc3OC2C1` (centres unmarked) [Example 799]: 6.00 to 6.30.

Consider `CC1(C)CNCc2oc3cc(S(=O)(=O)c4cc(F)cc(F)c4)ccc3c21` [Example 287], for which, under “Table 1, class symbols”, the negative logarithm of the Ki (pKi) was more than 6.30. Still for that read-out and setting: next, `N#Cc1ccc(S(=O)(=O)c2ccc3c(c2)OC2CNCCC32)cc1` (centres unmarked) [Example 139]: less than 6.00; `O=S(=O)(c1ccc2c(c1)C1CCNCC1O2)c1cccc2ccccc12` (centres unmarked) [Example 170]: more than 6.30. On the same count and under the same terms, the result for `CC(=O)NCC1NCCc2c1oc1ccc(S(=O)(=O)c3cccc(F)c3)cc21` (centres unmarked) [Example 531, N-({6-[(3-fluorophenyl)sulfonyl]-1,2,3,4-tetrahydro[1]benzofuro[2,3-c]pyridin-1-yl}methyl)acetamide] reads more than 6.30. On to `[O-][S+](c1ccc2c3c(oc2c1)CNCC3)c1c(F)c(F)cc(F)c1F` (centres unmarked) [Example 224], for which the negative-log Ki (pKi) (Table 1, class symbols) was more than 6.30. Take `O=S(=O)(Oc1ccc2c(c1)C1CCNCC1O2)c1c(Cl)cccc1Cl` (centres unmarked) [Example 741]: the pKi (Table 1, class symbols) is more than 6.30. As to `Cc1ccc(C)c(S(=O)(=O)Nc2ccc3c(c2)C2CCNCC2O3)c1` (centres unmarked) [Example 820, N-(1,2,3,4,4a,9a-hexahydro[1]benzofuro[2,3-c]pyridin-6-yl)-2,5-dimethylbenzenesulfonamide], the pKi is more than 6.30 (Table 1, class symbols) and 6.33 (specific data).

In the case of `CC12CCNCC1Oc1ccc(S(=O)(=O)c3ccncc3)cc12` (racemic) [Example 13, 4a-methyl-6-(pyridin-4-ylsulfonyl)-1,2,3,4,4a,9a-hexahydro[1]benzofuro[2,3-c]pyridine], under “Table 1, class symbols”, the pKi is less than 6.00. Same read-out and setting: next, `O=S(=O)(c1cccc(Oc2cnccn2)c1)c1ccc2c(c1)OC1CNCCC21` (centres unmarked) [Example 580]: more than 6.30.

On to `CC(=O)NCC1NCCc2c1oc1cc(S(=O)(=O)c3cccc(F)c3)ccc21` (racemic) [Example 535, N-({7-[(3-fluorophenyl)sulfonyl]-1,2,3,4-tetrahydro[1]benzofuro[2,3-c]pyridin-1-yl}methyl)acetamide], for which, where the note is “Table 1, class symbols”, the negative logarithm of the Ki (pKi) was more than 6.30. As for `O=S(=O)(Oc1ccc2c(c1)OC1CN(Cc3ccccc3)CCC21)c1ccc(Cl)cc1` (centres unmarked) [Example 803], under “Table 1, class symbols”, the negative logarithm of the Ki (pKi) was less than 6.00. The same measure, in the same setting: next, `O=S(=O)(Oc1ccc2c(c1)OC1CNCCC21)c1cccc(Cl)c1Cl` (centres unmarked) [Example 678]: more than 6.30; `CC12CCNCC1Oc1ccc(OS(=O)(=O)c3csc4ccccc34)cc12` (centres unmarked) [Example 772]: more than 6.30; `O=S(=O)(Nc1cc(Cl)cc(Cl)c1)c1ccc2c(c1)C1CCNCC1O2` (centres unmarked) [Example 843]: less than 6.00. On the same count and under the same terms, the result for `O=S(=O)(c1ccc2c3c(oc2c1)CNCC3)c1ccccc1F` [Example 231] reads more than 6.30; that for `CC1(C(F)F)NCCc2c1oc1cc(S(=O)(=O)c3cccc(F)c3F)ccc21` (single isomer, unassigned; enantiomer 1) [Example 471, 1-(Difluoromethyl)-7-[(2,3-difluorophenyl)sulfonyl]-1-methyl-1,2,3,4-tetrahydro[1]benzofuro[2,3-c]pyridine, enantiomer 1], more than 6.30. On to `COc1ccc(S(=O)(=O)c2cccc3c2OC2CNCCC32)cc1` (centres unmarked) [Example 187], for which the pKi (Table 1, class symbols) is 6.00 to 6.30. Turning to `Cc1ccc(C)c(S(=O)(=O)Oc2ccc3c(c2)C2CCNCC2O3)c1` (centres unmarked) [Example 704], the pKi (Table 1, class symbols) was more than 6.30.

As to `O=S(=O)(c1cccc(F)c1)c1ccc2c3c(oc2c1)C(C1CCOCC1)NCC3` (centres unmarked) [Example 496], the pKi (Table 1, class symbols) is more than 6.30. Still for that read-out and setting: next, `O=S(=O)(c1cccc(F)c1)c1ccc2c3c(oc2c1)C1(CCC1)NCC3` [Example 25, 7-[(3-fluorophenyl)sulfonyl]-3,4-dihydro-2H-spiro[1-benzofuro[2,3-c]pyridine-1,1′-cyclobutane]]: more than 6.30; `O=S(=O)(Nc1ccc(F)cc1)c1ccc2c(c1)C1CCNCC1O2` (centres unmarked) [Example 847]: less than 6.00. Same read-out and setting: next, `O=S(=O)(c1ccc(Oc2ccccc2)cc1)c1ccc2c(c1)C1CCNCC1O2` (centres unmarked) [Example 173]: less than 6.00; `CC(C)CC1(C)NCCc2c1oc1cc(S(=O)(=O)c3cccc(F)c3)ccc21` (racemic) [Example 36, 7-[(3-fluorophenyl)sulfonyl]-1-methyl-1-(2-methylpropyl)-1,2,3,4-tetrahydro[1]benzofuro[2,3-c]pyridine]: more than 6.30. The same measure, in the same setting: the result for `O=S(=O)(c1cccc(Br)c1)c1ccc2oc3c(c2c1)CCNC3` [Example 263, 6-[(3-bromophenyl)sulfonyl]-1,2,3,4-tetrahydro[1]benzofuro[2,3-c]pyridine] reads more than 6.30; that for `O=S(=O)(c1cccc(F)c1)c1ccc2c3c(oc2c1)C1(CCOC1)NCC3` (single isomer, unassigned) [Example 52, 7-[(3-fluorophenyl)sulfonyl]-3,4,4′,5′-tetrahydro-2H-spiro[1-benzofuro[2,3-c]pyridine-1,3′-furan]], more than 6.30.

Regarding `O=S(=O)(c1ccc2c3c(oc2c1)CNCC3)c1cccc2cccnc12` [Example 346], for the setting “Table 1, class symbols”, the pKi is more than 6.30. Same read-out and setting: the result for `CC(C)COc1cc(F)cc(S(=O)(=O)c2ccc3c(c2)OC2CNCCC32C)c1` (centres unmarked) [Example 424] reads more than 6.30; that for `O=S(=O)(Oc1ccc2c(c1)C1CCNCC1O2)c1ccc(-c2ccccc2)cc1` (centres unmarked) [Example 743], more than 6.30; that for `COc1cccc(S(=O)(=O)c2ccc3c(c2)OC2CNCCC32)c1F` (centres unmarked) [Example 416], more than 6.30.

With `CN(C)c1cccc(S(=O)(=O)c2ccc3oc4c(c3c2)CCNC4)c1` [Example 355], the pKi (Table 1, class symbols) is less than 6.00. The same measure, in the same setting: the result for `O=S(=O)(c1cccc(OCC2CCOCC2)c1)c1ccc2c(c1)OC1CNCCC21` (single isomer, unassigned) [Example 548, 7-{[3-(Tetrahydro-2H-pyran-4-ylmethoxy)phenyl]sulfonyl}-1,2,3,4,4a,9a-hexahydro[1]benzofuro[2,3-c]pyridine] reads more than 6.30.

Regarding `CC12CCNCC1Oc1ccc(OS(=O)(=O)c3ccc4ccccc4c3)cc12` (centres unmarked) [Example 769], the negative logarithm of the Ki (pKi) (Table 1, class symbols) is more than 6.30. `O=S(=O)(c1cc(F)cc(F)c1)c1ccc2c3c(oc2c1)C1(CCOC1)NCC3` (centres unmarked) [Example 305]: the pKi (Table 1, class symbols) was more than 6.30. Same read-out and setting: next, `O=S(=O)(c1ccc2c(c1)OC1CNCCC21)c1cccc2c1CCO2` (centres unmarked) [Example 405]: 6.00 to 6.30. Still for that read-out and setting: the result for `O=S(=O)(c1ccc(Cl)c(Cl)c1)c1ccc2c(c1)OC1CNCCC21` (centres unmarked) [Example 120] reads more than 6.30. Still for that read-out and setting: next, `[O-][S+](c1cccc(OC(F)(F)F)c1)c1ccc2c3c(oc2c1)C1(CCOCC1)NCC3` (centres unmarked) [Example 299, 7-{[3-(trifluoromethoxy)phenyl]sulfi-nyl}-2′,3,3′,4,5′,6′-hexahydro-2H-spiro[1-benzofuro[2,3-c]pyridine-1,4′-pyran]]: more than 6.30; `CC(=O)N(C)CC1NCCc2c1oc1ccc(S(=O)(=O)c3cccc(F)c3)cc21` (centres unmarked) [Example 533, N-({6-[(3-Fluorophenyl)sulfonyl]-1,2,3,4-tetrahydro[1]benzofuro[2,3-c]pyridin-1-yl}methyl)-N-methylacetamide]: more than 6.30; `CC1(C)NCCc2c1oc1cc(S(=O)(=O)c3cccc(F)c3F)ccc21` [Example 365]: more than 6.30.

Regarding `O=S(=O)(c1ccc2c(c1)OC1CNCCC21)c1cccc(F)c1F` (centres unmarked) [Example 399], the pKi (Table 1, class symbols) was more than 6.30.

Consider `CC(C)Oc1cccc(S(=O)(=O)c2ccc3oc4c(c3c2)CCNC4)c1` [Example 267], for which the pKi (Table 1, class symbols) was more than 6.30.

As to `Cc1cccc(S(=O)(=O)c2ccc3c(c2)OC2CNCCC32C)n1` (racemic) [Example 6, 4a-methyl-7-[(6-methylpyridin-2-yl)sulfonyl]-1,2,3,4,4a,9a-hexahydro[1]benzofuro[2,3-c]pyridine], where the note is “Table 1, class symbols”, the negative-log Ki (pKi) is less than 6.00. As for `CC1(C)CNC2(CCOC2)c2oc3cc([S+]([O-])c4cncc(Cl)c4)ccc3c21` (centres unmarked) [Example 455], for the setting “Table 1, class symbols”, the pKi is less than 6.00. Turning to `O=S(=O)(Oc1ccc2c(c1)OC1CNCCC21)c1c(Cl)cccc1Cl` (centres unmarked) [Example 679], under “Table 1, class symbols”, the pKi was more than 6.30.

On to `O=S(=O)(c1ccc2c(c1)OC1CNCCC21)c1ccccn1` (centres unmarked) [Example 331], for which the negative-log Ki (pKi) (Table 1, class symbols) is 6.00 to 6.30. On the same count and under the same terms, next, `O=S(=O)(Oc1ccc2c(c1)C1CCNCC1O2)c1csc(C(F)(F)F)c1-c1ccccc1` (centres unmarked) [Example 747]: 6.00 to 6.30; `Cc1ccc(S(=O)(=O)c2ccc3c(c2)OC2CNCCC32)cc1` (centres unmarked) [Example 121]: more than 6.30; `O=S(=O)(c1ccc2c(c1)OC1CNCCC21)c1c(F)c(F)cc(F)c1F` (centres unmarked) [Example 150]: more than 6.30. Still for that read-out and setting: next, `COc1ccc(S(=O)(=O)Oc2ccc3c(c2)C2(C)CCNCC2O3)cc1` (centres unmarked) [Example 760]: less than 6.00.

The values are drawn from patent US8765779B2, “Tricyclic derivatives and their pharmaceutical use and compositions” (Cephalon, Inc., priority 2009, dated 2014).
